Where a name gives a salt, the structure may show the parent alone.
Experiments:
[1] = tested on: Citrobacter freundii 1982; experiment: MIC in vitro of a 1:4 combination of ceftriaxone with a compound of formula I (Test D); type: cell-based; conditions: 1:4 combination of ceftriaxone with the compound; for MIC C. freundii 1982 (D): Table 4, test D; for MIC C. freundii 1982: Table 2
Experimental: The minimum inhibitory concentration in vitro ([…]) of a 1:4 combination of ceftriaxone with a compound of formula I against Citrobacter freundii 1982 was measured and compiled in Table 2 hereinafter.

[2] = tested on: E. coli 1346; experiment: Antibacterial activity of the products per se, serial dilution method in liquid medium (Test E); type: cell-based; conditions: product per se; for MIC E. coli 1346 (E): Table 4, test E; for MIC E. coli 1346: Table 3, liquid medium
From the text: The antibacterial activity of the products per se is illustrated on the basis of Table 3 hereinafter, the minimum inhibitory concentration […] in vitro against E. coli 1346 being determined using the serial dilution method in liquid medium: […]

With CS(=O)(=O)NCC1=C(C(=O)O)N2C(=O)[C@@H]3[C@H]2[C@H](C1)CN3C(=O)C(F)(F)F [88(b), (1aS,3aR,6bR)-5-Methylsulphonylaminomethyl-1-oxo-2-trifluoroacetyl-1a,2,3,3a,4,6b-hexahydro-1H-2,6a-diazacyclobut[cd]indene-6-carboxylic acid sodium salt] the “MIC C. freundii 1982 (D)” value [1] was 2 µg/mL and the “MIC E. coli 1346 (E)” value [2] was 4 µg/mL.
With CC(=O)N1C[C@H]2CC(COC(=O)Nc3ccc(O)cc3)=C(C(=O)O)N3C(=O)[C@@H]1[C@@H]23 [90(a), (1aS,3aR,6bR)-2-Acetyl-5-(4-hydroxy-phenylcarbamoyloxymethyl)-1-oxo-1a,2,3,3a,4,6b-hexahydro-1H-2,6a-diazacyclobut[cd]indene-6-carboxylic acid sodium salt] the “MIC C. freundii 1982 (D)” value [1] was 1 µg/mL and the “MIC E. coli 1346 (E)” value [2] was 0.5 µg/mL.
In the case of O=C(Nc1ccc(O)cc1)OCC1=C(C(=O)O)N2C(=O)[C@@H]3[C@H]2[C@H](C1)CN3C(=O)C(F)(F)F [90(b), (1aS,3aR,6bR)-5-(4-Hydroxy-phenylcarbamoyloxymethyl)-2-trifluoroacetyl-1-oxo-1a,2,3,3a,4,6b-hexahydro-1H-2,6a-diazacyclobut[cd]indene-6-carboxylic acid sodium salt], the “MIC C. freundii 1982 (D)” value [1] was 1 µg/mL and the “MIC E. coli 1346 (E)” value [2] was 0.5 µg/mL.
For CC(=O)N1C[C@H]2CC(COC(=O)NCC(F)(F)F)=C(C(=O)O)N3C(=O)[C@@H]1[C@@H]23 [92(a), (1aS,3aR,6bR)-2-Acetyl-1-oxo-5-(2,2,2-trifluoroethylcarbamoyloxymethyl)-1a,2,3,3a,4,6b-hexahydro-1H-2,6a-diazacyclobut[cd]indene-6-carboxylic acid sodium salt], the “MIC C. freundii 1982 (D)” value [1] was 2 µg/mL and the “MIC E. coli 1346 (E)” value [2] was 4 µg/mL.
With O=C(NCC(F)(F)F)OCC1=C(C(=O)O)N2C(=O)[C@@H]3[C@H]2[C@H](C1)CN3C(=O)C(F)(F)F [92(b), (1aS,3aR,6bR)-1-Oxo-2-trifluoroacetyl-5-(2,2,2-trifluoroethylcarbamoyloxymethy)-1a,2,3,3a,4,6b-hexahydro-1H-2,6a-diazacyclobut[cd]indene-6-carboxylicacid sodium salt] the “MIC C. freundii 1982 (D)” value [1] was 2 µg/mL and the “MIC E. coli 1346 (E)” value [2] was 4 µg/mL.
In the case of CC(=O)N1C[C@H]2CC(COC(=O)NC3CC3)=C(C(=O)O)N3C(=O)[C@@H]1[C@@H]23 [94(a), (1aS,3aR,6bR)-2-Acetyl-5-cyclopropylcarbamoyloxymethyl-1-oxo-1a,2,3,3a,4,6b-hexahydro-1H-2,6a-diazacyclobut[cd]indene-6-carboxylic acid sodium salt], the “MIC C. freundii 1982 (D)” value [1] was 2 µg/mL and the “MIC E. coli 1346 (E)” value [2] was 2 µg/mL.
For O=C(NC1CC1)OCC1=C(C(=O)O)N2C(=O)[C@@H]3[C@H]2[C@H](C1)CN3C(=O)C(F)(F)F [94(b), (1aS,3aR,6bR)-5-Cyclopropylcarbamoyloxymethyl-1-oxo-2-trifluoroacetyl-1a,2,3,3a,4,6b-hexahydro-1H-2,6 a-diazacyclobut[cd]indene-6-carboxylic acid sodium salt], the “MIC C. freundii 1982 (D)” value [1] was 1 µg/mL and the “MIC E. coli 1346 (E)” value [2] was 2 µg/mL.
With CC(=O)N1C[C@H]2CC(COC(=O)NCC(N)=O)=C(C(=O)O)N3C(=O)[C@@H]1[C@@H]23 [96(a), (1aS,3aR,6bR)-2-Acetyl-5-carbamoylmethylcarbamoyloxymethyl-1-oxo-1a,2,3,3a,4,6b-hexahydro-1H-2,6a-diazacyclobut[cd]indene-6-carboxylic acid sodium salt] the “MIC C. freundii 1982 (D)” value [1] was 2 µg/mL and the “MIC E. coli 1346 (E)” value [2] was 8 µg/mL.
With NC(=O)CNC(=O)OCC1=C(C(=O)O)N2C(=O)[C@@H]3[C@H]2[C@H](C1)CN3C(=O)C(F)(F)F [96(b), (1aS,3aR,6bR) 5-Carbamoylmethylcarbamoyloxymethyl-1-oxo-2-trifluoroacetyl-1a,2,3,3a,4,6b-hexahydro-1H-2,6a-diazacyclobut[cd]indene-6-carboxylic acid sodium salt] the “MIC C. freundii 1982 (D)” value [1] was 0.5 µg/mL and the “MIC E. coli 1346 (E)” value [2] was 2 µg/mL.
For CNC(=O)OCC1=C(C(=O)O)N2C(=O)[C@@H]3[C@H]2[C@H](C1)CN3C(C)=O [98(a), (1aS,3aR,6bR)-2-Acetyl-5-methylcarbamoyloxymethyl-1-oxo-1a,2,3,3a,4,6b-hexahydro-1H-2,6a-diazacyclobut[cd]indene-6-carboxylic acid sodium salt], the “MIC C. freundii 1982 (D)” value [1] was 1 µg/mL and the “MIC E. coli 1346 (E)” value [2] was 2 µg/mL.
For CNC(=O)OCC1=C(C(=O)O)N2C(=O)[C@@H]3[C@H]2[C@H](C1)CN3C(=O)C(F)(F)F [98(b), (1aS,3aR,6bR)-5-Methylcarbamoyloxymethyl-1-oxo-2-trifluoroacetyl-1a,2,3,3a,4,6b-hexahydro-1H-2,6a-diazacyclobut[cd]indene-6-carboxylic acid sodium salt], the “MIC C. freundii 1982 (D)” value [1] was 1 µg/mL and the “MIC E. coli 1346 (E)” value [2] was 2 µg/mL.
In the case of CC(=O)N1C[C@H]2CC(COC(=O)NCc3ccncc3)=C(C(=O)O)N3C(=O)[C@@H]1[C@@H]23 [100(a), (1aS,3aR,6bR)-2-Acetyl-1-oxo-5-(pyridin-4-ylmethylcarbamoyloxymethyl)-1a,2,3,3a,4,6b-hexahydro-1H-2,6a-diazacyclobut[cd]indene-6-carboxylic acid sodium salt], the “MIC C. freundii 1982 (D)” value [1] was 1 µg/mL and the “MIC E. coli 1346 (E)” value [2] was 1 µg/mL.
With O=C(NCc1ccncc1)OCC1=C(C(=O)O)N2C(=O)[C@@H]3[C@H]2[C@H](C1)CN3C(=O)C(F)(F)F [100(b), (1aS,3aR,6bR)-1-Oxo-5-(pyridin-4-ylmethylcarbamoyloxymethyl)-2-trifluoroacetyl-1a,2,3,3a,4,6b-hexahydro-1H-2,6a-diazacyclobut[cd]indene-6-carboxylic acid sodium salt] the “MIC C. freundii 1982 (D)” value [1] was 1 µg/mL and the “MIC E. coli 1346 (E)” value [2] was 2 µg/mL.
N[C@@H](C(=O)N1C[C@H]2CC(COC(=O)NCc3ccncc3)=C(C(=O)O)N3C(=O)[C@@H]1[C@@H]23)c1ccccc1 [100(d), (1aS,3aR,6bR)-2-[(R)-2-phenyl-glycyl]-1-oxo-5-(pyridin-4-ylmethylcarbamoyloxymethyl)-1a,2,3,3a,4,6b-hexahydro-1H-2,6a-diazacyclobut[cd]indene-6-carboxylic acid hydrochloride] was tested, and the “MIC C. freundii 1982 (D)” value [1] was 2 µg/mL and the “MIC E. coli 1346 (E)” value [2] was 0.5 µg/mL.
In the case of CC(=O)N1C[C@H]2CC(COC(=O)NCc3ccc(O)cc3)=C(C(=O)O)N3C(=O)[C@@H]1[C@@H]23 [102(a), (1aS,3aR,6bR)-2-Acetyl-5-[(4-hydroxy-benzyl)-carbamoyloxymethyl]-1-oxo-1a,2,3,3a,4,6b-hexahydro-1H-2,6a-diazacyclobut[cd]indene-6-carboxylic acid sodium salt], the “MIC C. freundii 1982 (D)” value [1] was 2 µg/mL and the “MIC E. coli 1346 (E)” value [2] was 0.5 µg/mL.
For O=C(NCc1ccc(O)cc1)OCC1=C(C(=O)O)N2C(=O)[C@@H]3[C@H]2[C@H](C1)CN3C(=O)C(F)(F)F [102(b), (1aS,3aR,6bR)-5-[(4-Hydroxy-benzyl)-carbamoyloxymethyl]-2-trifluoroacetyl-1-oxo-1a,2,3,3a,4,6b-hexahydro-1H-2,6a-diazacyclobut[cd]indene-6-carboxylicacid sodium salt], the “MIC C. freundii 1982 (D)” value [1] was 2 µg/mL and the “MIC E. coli 1346 (E)” value [2] was 1 µg/mL.
With Cc1nnc(SC2=C(C(=O)O)N3C(=O)[C@H]4NC[C@@H](C2)[C@H]43)s1 [Example 2(b), (1aS,3aR,6bR)-5-(5-Methyl-1,3,4-thiadiazol-2-ylsulphanyl)-1-oxo-1a, 2,3,3a,4,6b-hexahydro-1H-2,6a-diazcyclobut[cd]indene-6-carboxylic acid trifluoroacetate] the “MIC C. freundii 1982” value [1] was 1 µg/mL and the “MIC E. coli 1346” value [2] was 4 µg/mL.
In the case of O=C(O)C1=C(Sc2ccncc2)C[C@@H]2CN[C@@H]3C(=O)N1[C@H]23 [Example 2(d), (1aS,3aR,6bR)-1-oxo-5-(pyridin-4-ylsulphanyl)-1a,2,3,3a,4,6b-hexahydro-1H-2,6a-diazacyclobut[cd]indene-6-carboxylic acid trifluoroacetate], the “MIC C. freundii 1982 (D)” value [1] was 64 µg/mL and the “MIC E. coli 1346 (E)” value [2] was over 32 µg/mL.
For NC(=O)CSC1=C(C(=O)O)N2C(=O)[C@H]3NC[C@@H](C1)[C@H]32 [Example 2(f), (1aS,3aR,6bR)-5-Carbamoylmethylsulphanyl-1-oxo-1a,2,3,3a,4,6b-hexahydro-1H-2,6a-diazacyclobut[cd]indene-6-carboxylic acid trifluoroacetate], the “MIC C. freundii 1982 (D)” value [1] was 2 µg/mL and the “MIC E. coli 1346 (E)” value [2] was 8 µg/mL.
In the case of Cn1nnnc1SC1=C(C(=O)O)N2C(=O)[C@@H]3[C@H]2[C@H](C1)CN3C(=O)Nc1ccc(O)cc1 [Example 3(a), (1aS,3aR,6bR)-2-(4-Hydroxy-phenylcarbamoyl)-5-(1-methyl-1H-tetrazol-5-ylsulphanyl)-1-oxo-1a,2,3,3a,4,6b-hexahydro-1H-2,6a-diazacyclobut[cd]indene-6-carboxylic acid sodium salt], the “MIC C. freundii 1982” value [1] was 0.25 µg/mL and the “MIC E. coli 1346” value [2] was 128 µg/mL.
CC(=O)N1C[C@H]2CC(Sc3nnnn3C)=C(C(=O)O)N3C(=O)[C@@H]1[C@@H]23 [Example 3(aa), (1aS,3aR,6bR)-2-Acetyl-5-(1-methyl-1H-tetrazol-5-ylsulphanyl)-1-oxo-1a,2,3,3a,4,6b-hexahydro-1H-2,6a-diazacyclobut[cd]indene-6-carboxylic acid sodium salt] was tested, and the “MIC C. freundii 1982 (D)” value [1] was 2 µg/mL and the “MIC E. coli 1346 (E)” value [2] was 8 µg/mL.
Cn1nnnc1SC1=C(C(=O)O)N2C(=O)[C@@H]3[C@H]2[C@H](C1)CN3C(=O)C(F)(F)F [Example 3(ab), (1aS,3aR,6bR)-5-(1-Methyl-1H-tetrazol-5-ylsulphanyl)-1-oxo-2-trifluoroacetyl-1a,2,3,3a,4,6b-hexahydro-1H-2,6a-diazacyclobut[cd]indene-6-carboxylic acid sodium salt] was tested, and the “MIC C. freundii 1982 (D)” value [1] was 16 µg/mL and the “MIC E. coli 1346 (E)” value [2] was 32 µg/mL.

From patent US5464617A, “β-lactam compounds” (Hoffmann-La Roche Inc., priority 1994, dated 1995)
